In paper PMC9867241, “Antioxidant and Cytotoxic Activity of New Polyphenolic Derivatives of Quinazolin-4(3H)-one: Synthesis and In Vitro Activities Evaluation” (Pharmaceutics, 2022):

Legend:
[1] = Reducing power (RP) assay; design: concentration or dose not given beside the values; conditions: for RP, % of Activity of Trolox: relative to Trolox; for RP, % of Activity of Ascorbic Acid: relative to ascorbic acid
Method: Herein, the iron (III) is not free in the solution as it was in the FRAP assay and is complexed by cyanide ions. The evaluation of the reducing power (RP) was performed at a pH closer to neutral (pH = 6.6); this is different from the FRAP test, which is performed in an acidic environment. Against a blank sample, the absorbances were measured at λ = 700 nm. The followed protocol was based on the adaptation of previously reported protocols and was previously reported by our group. Using Equation (4), we calculated the reducing power of the 5a–d and 6a–d compounds as a percentage of the reference compounds activity.
The evaluated compounds can reduce ferricyanide to ferrocyanide, in the presence of ferric ions, resulting in the Perl’s Prussian which gives blue. The higher the percentage of reducing power, the higher was the absorbance that was measured due to a higher amount of colored complex resulting from the reaction.

[2] = test system: normal human foreskin fibroblasts (BJ); test: Cytotoxicity, Alamar blue assay, BJ cells; format: cell-based; conditions: Homo sapiens, Fibroblast; 24 h exposure, Alamar blue
Excerpt: (§1) Normal human foreskin (BJ) fibroblasts and two types of cancer cells, namely A549 (lung adenocarcinoma) and LNCaP (prostate carcinoma) purchased from American Type Culture Collection (Manassas, VA, USA), were used in the experiments. Each cell line was maintained in a different culture medium, depending on the metabolic necessities of the cells. BJ cells were maintained in Dulbecco’s modified Eagle’s medium (DMEM) with low glucose. A549 cells were maintained in DMEM with high glucose […], while LNCaP cells were grown in Roswell Park Memorial Institute (RPMI) 1640 medium with high glucose (5 g/L). All media used were supplemented with 10% fetal bovine serum (FBS) and were refreshed every two days. Cells were used in experiments or subcultured when they reached 70–80% confluence.
(§2) In 100 µL in 96-well plates, a number of 30,000 LNCaP cells, 15,000 A549 cells, and 7500 normal (BJ) cells were seeded. Because the cells have different sizes and volumes, the purpose of the different seedings was to achieve a confluency of 70–80% after 24 h. All types of cells were further exposed to the synthesized compounds (5a–d and 6a–d) for 24 h, at a concentration ranging from 12.5 to 100 µg/mL. Post-exposure, the media were removed, and the cells were washed with phosphate buffer saline (PBS). Their viability was evaluated using Alamar blue (AB) assay as previously described. Briefly, the cells were incubated with a 200 µM resazurin solution for 4 h. Using a Synergy 2 multi-mode microplate reader, we measured the fluorescence. The measurement was performed at λexcitation = 530/25 nm; λemission = 590/35 nm. We conducted the experiments using three biological replicates, each one including 6 technical replicates. As negative controls (NC), cells exposed to culture medium containing 0.2% DMSO were used. Compared to the NC (100%), the results were expressed as relative values. We used IC50 values for the potency evaluation, and calculated them for each cell line, using the dose-effect curves obtained by fitting the experimental data with a 4-parameter logistic curve.
(§3) Mean values ± standard deviation (SD) values of at least three biological replicates were used to calculate experimental data. One-way analysis of variance (ANOVA) with a post hoc Holm–Sidak test was used to statistically examine the data. Using SigmaPlot 11.0 software (Systat, Software Inc., Chicago, IL, USA), we performed the graphical display and data analysis. From a statistical point of view, the results were considered different, at values of p < 0.05.

[3] = Fe^2+ chelation assay (ferrozine competition)
Method: In the protocol used for evaluating the Fe^2+ chelating ability of the compounds, the absorbances of the solutions were determined at λ = 562 nm, against a blank sample. The method was adapted from the initial report of Benzie and Strain et al., which was previously reported by our group. Using Equation (5), we calculated the iron chelation capacities of the 5a–d and 6a–d compounds:(5) iron chelation (%)=control absorbance−sample absorbance/control absorbance×100
The chelating capacity of the tested compounds of Fe^2+ was evaluated based on their competition for Fe^2+ with ferrozine.

[4] = Cupric reducing antioxidant capacity (CUPRAC) assay; design: concentration or dose not given beside the values; conditions: for CUPRAC, % of Activity of Trolox: relative to Trolox; for CUPRAC, % of Activity of Ascorbic Acid: relative to ascorbic acid
Method: The ability to donate electrons was evaluated for the compounds 5a–d and 6a–d, by the CUPRAC (CUPric reducing antioxidant capacity) method. The absorbance was measured against a blank sample, at λ = 450 nm. The assay was performed based on our group’s previous report by the adaptation of the initial report of Alam et al., Özyürek et al. and Apak et al.. With the use of Equation (4), the cupric ion reduction by compounds 5a–d and 6a–d was expressed as a percentage of the reference compound activity.
The Cu^2+ ions are reduced to Cu^+ ions by the electron-donating compounds. The Cu^+ ions are chelated by neocuproine, giving a colored complex with absorbance proportional to the quantity of Cu^+ ions that resulted.

[5] = test system: A549 (lung adenocarcinoma) cells; test: Cytotoxicity, Alamar blue assay, A549 cells; format: cell-based; conditions: Homo sapiens, 24 h exposure
Excerpt: as §1, §2, §3

[6] = NO˙ radical scavenging assay (Griess reaction); conditions: PBS pH 7.4, sodium nitroprusside
Method: The scavenging of the NO˙ radical was performed by applying previously reported protocols. The in vitro protocol describes the decomposition of sodium nitroprusside in phosphate buffered saline (PBS) at pH = 7.4. The NO˙ radicals would be involved in a Griess reaction if they were not captured by the tested compounds. This reaction results from the formation of an azo dye, with maximum absorption at 546 nm. This azo dye is formed from sulfanilic acid and naphthyl ethylenediamine dichloride.

[7] = Phosphomolybdate assay for total antioxidant capacity (TAC); design: concentration or dose not given beside the values; conditions: for TAC, % of Activity of Trolox: relative to Trolox; for TAC, % of Activity of Ascorbic Acid: relative to ascorbic acid
Excerpt: Using the phosphomolybdate assay, we determined the total antioxidant capacity (TAC) of the tested compounds. We measured the solutions’ absorbances against a blank sample at λ = 695 nm, using a previously reported procedure by our group, based on initial literature reports. Using Equation (4), we calculated the TAC of 5a–d and 6a–d compounds.
At acidic pH, the tested compounds transfer one electron to Mo^6+ to reduce it to Mo^5+.

Row | Structure (SMILES) | RP, % of Activity of Trolox [1] [%] | RP, % of Activity of Ascorbic Acid [1] [%] | IC50 [2] [mg/L] | Ferrous ions Chelation Capacity (%) ([3]; 17.70 µg/mL) | Ferrous ions Chelation Capacity (%) ([3]; 20.59 µg/mL) | Ferrous ions Chelation Capacity (%) ([3]; 29.41 µg/mL) | Ferrous ions Chelation Capacity (%) ([3]; 44.11 µg/mL) | Ferrous ions Chelation Capacity (%) ([3]; 58.82 µg/mL) | Ferrous ions Chelation Capacity (%) ([3]; 88.23 µg/mL) | Ferrous ions Chelation Capacity (%) ([3]; 117.64 µg/mL) | Ferrous ions Chelation Capacity (%) ([3]; 257.46 µg/mL) | Ferrous ions Chelation Capacity (%) ([3]; 343.28 µg/mL) | CUPRAC, % of Activity of Trolox [4] [%] | CUPRAC, % of Activity of Ascorbic Acid [4] [%] | IC50 [5] [mg/L] | % of NO˙ Scavenged [6] [%] | TAC, % of Activity of Trolox [7] [%] | TAC, % of Activity of Ascorbic Acid [7] [%]
1 | CC(=NNC(=O)CSc1nc2ccccc2c(=O)n1Cc1ccccc1)c1ccc(O)cc1O [Compound 6b, 2-((3-Benzyl-4-oxo-3,4-dihydroquinazolin-2-yl)thio)-N’-(1-(2,4-dihydroxyphenyl)ethylidene)acetohydrazide] | 29.01 | 19.91 | > 100 | - (- represents less than 5%) | - (- represents less than 5%) | - (- represents less than 5%) | - (- represents less than 5%) | - (- represents less than 5%) | - (- represents less than 5%) | - (- represents less than 5%) | - (- represents less than 5%) | - (- represents less than 5%) | 22.63 | 23.74 | 42.2 | 33.31 | 101.03 | 52.36
2 | CCn1c(SCC(=O)NN=C(C)c2ccc(O)cc2O)nc2ccccc2c1=O [Compound 6c, N’-(1-(2,4-dihydroxyphenyl)ethylidene)-2-((3-ethyl-4-oxo-3,4-dihydroquinazolin-2-yl)thio)acetohydrazide] | 28.98 | 19.89 | > 100 | - (- represents less than 5%) | - (- represents less than 5%) | - (- represents less than 5%) | - (- represents less than 5%) | - (- represents less than 5%) | - (- represents less than 5%) | - (- represents less than 5%) | - (- represents less than 5%) | - (- represents less than 5%) | 29.09 | 30.52 | > 100 | 30.62 | 110.05 | 57.03
3 | CCCCn1c(SCC(=O)NN=C(C)c2ccc(O)cc2O)nc2ccccc2c1=O [Compound 6d, 2-((3-butyl-4-oxo-3,4-dihydroquinazolin-2-yl)thio)-N’-(1-(2,4-dihydroxyphenyl)ethylidene)acetohydrazide] | 24.53 | 16.84 | > 100 | - (- represents less than 5%) | - (- represents less than 5%) | - (- represents less than 5%) | - (- represents less than 5%) | - (- represents less than 5%) | - (- represents less than 5%) | - (- represents less than 5%) | - (- represents less than 5%) | - (- represents less than 5%) | 11.25 | 11.80 | 32.4 | 30.71 | 76.63 | 39.72
